From paper PMC3348135, “Identification of New Agonists and Antagonists of the Insect Odorant Receptor Co-Receptor Subunit” (PLoS ONE, 2012)
Where two headings read alike, the source gives them in different places.

Columns and labels:
Cqui\Orco = experiment: Agonist activation of homomeric Cqui\Orco in Xenopus oocytes, two-electrode voltage clamp; assay type: cell-based, Culex quinquefasciatus; conditions: 100 µM compound; mean ± SEM, n=3-8
Cqui\Orco + Cqui\Or10 [1] = target: T1, Cqui\Orco + Cqui\Or10 (Culex quinquefasciatus, UniProt D5LMR7+Q309I4); experiment: Inhibition of odorant (3-methylindole) activation of Cqui\Orco + Cqui\Or10 in Xenopus oocytes; assay type: cell-based; conditions: for Inhibition of activation of Cqui\Orco+Cqui\Or10 by 3-methylindole: 100 nM 3-methylindole, OLC compound 100 µM
T1 sequence (D5LMR7 entry or part of it): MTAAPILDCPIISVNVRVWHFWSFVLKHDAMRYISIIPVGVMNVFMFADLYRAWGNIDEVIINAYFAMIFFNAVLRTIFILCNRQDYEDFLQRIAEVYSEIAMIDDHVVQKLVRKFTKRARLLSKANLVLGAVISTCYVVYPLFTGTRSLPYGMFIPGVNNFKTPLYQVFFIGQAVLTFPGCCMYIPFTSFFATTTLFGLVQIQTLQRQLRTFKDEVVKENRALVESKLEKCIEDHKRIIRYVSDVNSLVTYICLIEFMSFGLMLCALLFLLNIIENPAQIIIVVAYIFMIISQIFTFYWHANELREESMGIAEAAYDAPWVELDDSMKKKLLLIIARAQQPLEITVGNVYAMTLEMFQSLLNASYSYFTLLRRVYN
T1 sequence (Q309I4 entry or part of it): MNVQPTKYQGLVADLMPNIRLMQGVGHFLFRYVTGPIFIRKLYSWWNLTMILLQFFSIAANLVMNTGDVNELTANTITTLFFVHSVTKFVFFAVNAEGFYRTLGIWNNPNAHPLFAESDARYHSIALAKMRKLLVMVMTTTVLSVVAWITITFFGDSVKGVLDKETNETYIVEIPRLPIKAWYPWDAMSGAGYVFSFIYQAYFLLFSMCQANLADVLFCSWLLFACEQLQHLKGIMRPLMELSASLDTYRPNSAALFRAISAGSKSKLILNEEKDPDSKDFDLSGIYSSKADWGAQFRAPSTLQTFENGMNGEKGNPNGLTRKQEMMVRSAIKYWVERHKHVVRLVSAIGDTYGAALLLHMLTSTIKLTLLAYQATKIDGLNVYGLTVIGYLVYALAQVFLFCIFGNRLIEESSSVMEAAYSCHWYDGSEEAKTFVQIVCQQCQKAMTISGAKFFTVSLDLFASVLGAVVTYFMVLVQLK

Onub\Orco + Onub\Or1 = experiment: Agonist activation of Onub\Orco + Onub\Or1 in Xenopus oocytes, two-electrode voltage clamp; assay type: cell-based, Ostrinia nubilalis; conditions: 100 µM compound; mean ± SEM, n=3-8
[2] = Solubility in recording solution (observation); assay type: physicochemical; conditions: aqueous recording solution, higher concentrations (OLC2: above 100 µM)
Method: (§1) Odorant and Orco ligand induced currents were recorded under two-electrode voltage clamp in Xenopus laevis oocytes expressing ORs, using an automated parallel electrophysiology system (OpusExpress 6000A; Molecular Devices). Oocytes were perfused with ND96 (in mM: 96 NaCl, 2 KCl, 1 CaCl2, 1 MgCl2, 5 HEPES, pH 7.5). Odorant stock solutions (0.5 or 1 M) and Orco ligand stock solutions (100 mM) were prepared in DMSO and diluted in ND96. Unless otherwise noted, applications were for 60 sec at a flow rate of 1.0 ml/min, with extensive washing in ND96 (9 or 20 min at 4.6 ml/min) between applications. Micropipettes were filled with 3 M KCl and had resistances of 0.2−2.0 MΩ. The holding potential was −70 mV. Current responses, filtered (4-pole, Bessel, low pass) at 20 Hz (−3 db) and sampled at 100 Hz, were captured and stored using OpusXpress 1.1 software (Molecular Devices).

Dmel\Orco [3] = target: T2, Dmel\Orco (Drosophila melanogaster, UniProt Q9VNB5); experiment: Agonist activation of homomeric Dmel\Orco in Xenopus oocytes, two-electrode voltage clamp; assay type: cell-based; conditions: read-out: Response amplitude as percentage of response to 100 µM OLC3, Dmel\Orco
T2 construct: expressed in transfected cells; host or cells: Xenopus laevis oocytes (cRNA injection, pGEMHE)
T2 sequence (Q9VNB5 1-486): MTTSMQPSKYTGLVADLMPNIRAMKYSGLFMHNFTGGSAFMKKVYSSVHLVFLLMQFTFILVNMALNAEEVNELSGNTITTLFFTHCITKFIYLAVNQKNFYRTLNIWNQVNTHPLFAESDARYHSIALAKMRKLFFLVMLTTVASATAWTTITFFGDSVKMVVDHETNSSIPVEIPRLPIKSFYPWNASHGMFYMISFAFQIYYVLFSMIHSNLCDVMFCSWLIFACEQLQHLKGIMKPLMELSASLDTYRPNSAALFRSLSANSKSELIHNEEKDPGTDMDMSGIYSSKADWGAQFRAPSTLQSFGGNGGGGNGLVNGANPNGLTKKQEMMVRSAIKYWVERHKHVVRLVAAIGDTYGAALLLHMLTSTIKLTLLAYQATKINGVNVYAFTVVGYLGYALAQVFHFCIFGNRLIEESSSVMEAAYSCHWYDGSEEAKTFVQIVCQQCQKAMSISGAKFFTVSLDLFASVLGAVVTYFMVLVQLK
Method: (§2) Oocytes were surgically removed from mature Xenopus laevis frogs. Follicle cells were removed by treatment with Collagenase B (Boehringer Mannhem) for 2 hours at room temperature. Capped cRNA encoding each DmOR subunit was generated using mMessage mMachine kits (Ambion). For heteromeric ORs, 25 ng of cRNA encoding each OR subunit was injected into Stage V-VI Xenopus oocytes. For expression of Orco alone, 50 ng of cRNA was injected. Oocytes were incubated at 18°C in Barth’s saline (in mM: 88 NaCl, 1 KCl, 2.4 NaHCO3, 0.3 CaNO3, 0.41 CaCl2, 0.82 MgSO4, 15 HEPES, pH 7.6, and 150 µg/ml ceftazidime) for 2–5 days prior to electrophysiological recording.
as §1
(§3) Initial analysis of electrophysiological data was done using Clampfit 9.1 software (Molecular Devices). Curve fitting and statistical analyses were done using Prism 5 (Graphpad). Concentration-response data were fit to the equation: I = Imax/(1+(EC50/X)^n) where I represents the current response at a given concentration of odorant, X; Imax is the maximal response; EC50 is the concentration of agonist yielding a half maximal response; n is the apparent Hill coefficient. Concentration-inhibition data were fit to the equation: I = Imax/(1+(X/IC50)^n) where I represents the current response at a given concentration of inhibitor, X; Imax is the maximal response in the absence of inhibitor; IC50 is the concentration of inhibitor present that still allows a half maximal response from odorant; n is the apparent Hill coefficient. Statistical significance was assessed using a two-tailed unpaired t test, an F test, or a one-way analysis of variance followed by the Bonferroni’s post-test, as appropriate.

Dmel\Orco + Dmel\Or35a = target: T3, Dmel\Orco + Dmel\Or35a (Drosophila melanogaster, UniProt Q9VNB5); experiment: Inhibition of odorant (hexanol) activation of Dmel\Orco + Dmel\Or35a in Xenopus oocytes; assay type: cell-based; conditions: 3 µM hexanol; OLC2 100 µM, OLC15 50 µM, OLC20 200 µM
T3 construct: expressed in transfected cells; host or cells: Xenopus laevis oocytes (cRNA injection, pGEMHE)
T3 sequence (Q9VNB5 1-486): T2 sequence (Q9VNB5 1-486)
T3 sequence (Q9V3Q2 1-409 partner): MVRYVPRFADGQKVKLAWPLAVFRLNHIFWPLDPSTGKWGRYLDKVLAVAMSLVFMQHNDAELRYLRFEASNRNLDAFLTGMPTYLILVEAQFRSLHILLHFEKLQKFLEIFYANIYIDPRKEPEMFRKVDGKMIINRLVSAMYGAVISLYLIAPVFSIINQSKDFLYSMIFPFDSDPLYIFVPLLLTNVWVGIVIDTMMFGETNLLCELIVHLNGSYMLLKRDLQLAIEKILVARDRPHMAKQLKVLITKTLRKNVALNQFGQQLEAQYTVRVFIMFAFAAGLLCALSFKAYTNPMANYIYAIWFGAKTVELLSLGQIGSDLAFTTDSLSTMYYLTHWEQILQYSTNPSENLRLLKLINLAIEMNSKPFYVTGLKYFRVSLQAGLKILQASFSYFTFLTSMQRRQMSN
Method: as §2, §1
In inhibition assays, oocytes were exposed to 60 sec applications of OLC12 with 9 min washes between applications (Fig. 3 and 4) or 60 sec applications of odorant with 20 min washes between applications (Fig. 5). […]
Initial analysis of electrophysiological data was done using Clampfit 9.1 software (Molecular Devices). […] Statistical significance was assessed using a two-tailed unpaired t test, an F test, or a one-way analysis of variance followed by the Bonferroni’s post-test, as appropriate.

Cqui\Orco + Cqui\Or10 [4] = target: T1, Cqui\Orco + Cqui\Or10; experiment: Activation of Cqui\Orco + Cqui\Or10 in Xenopus oocytes, two-electrode voltage clamp; assay type: cell-based; conditions: 100 µM compound; mean ± SEM, n=3-8; read-out: Response amplitude as percentage of response to 100 µM OLC3, Cqui\Orco + Cqui\Or10
Method: as §2, §1, §3

Dmel\Orco [5] = target: T2, Dmel\Orco; experiment: Inhibition of OLC12 activation of Dmel\Orco in Xenopus oocytes; assay type: cell-based; conditions: for IC50: activated by 30 µM OLC12 (EC39)
Method: as §2, §1
In inhibition assays, oocytes were exposed to 60 sec applications of OLC12 with 9 min washes between applications (Fig. 3 and 4) or 60 sec applications of odorant with 20 min washes between applications (Fig. 5). Oocytes were then exposed to a 90 sec application of antagonist candidate, immediately followed by a 60 sec co-application of antagonist candidate and OLC12 or odorant. Oocytes were then exposed to a final 60 sec application of OLC12 or odorant. The current response in the presence of antagonist candidate was compared to the preceding response(s) to OLC12 (or odorant) alone.
as §3

SMILES	Response amplitude as percentage of response to 100 µM OLC3, Cqui\Orco (Cqui\Orco) [%]	Inhibition of activation of Cqui\Orco+Cqui\Or10 by 3-methylindole (Cqui\Orco + Cqui\Or10 [1])	Response amplitude as percentage of response to 100 µM OLC3, Onub\Orco + Onub\Or1 (Onub\Orco + Onub\Or1) [%]	Solubility [2]	Emax at 100 µM (Dmel\Orco [3]) [%]	Inhibition of the hexanol response of Dmel\Orco+Dmel\Or35a (Dmel\Orco + Dmel\Or35a)	Emax at 100 µM (Cqui\Orco + Cqui\Or10 [4]) [%]	Inhibition of activation of Dmel\Orco by 30 µM OLC12 on co-application (Dmel\Orco [5]; 100 µM compound co-applied with 30 µM OLC12)	IC50 (Dmel\Orco [5]) [µM]	IC50 (Cqui\Orco + Cqui\Or10 [1]; activated by 10 nM 3-methylindole (EC10), read-out: IC50 for inhibition of responses to 10 nM 3-MI) [nM]	IC50 (Cqui\Orco + Cqui\Or10 [1]; activated by 100 nM 3-methylindole (EC53), read-out: IC50 for inhibition of responses to 100 nM 3-MI) [nM]
CCc1ccc(NC(=O)CSc2nnc(-c3ccccn3)n2CC)cc1 [OLC2]	0	inhibited	9 ± 2	poor solubility	0	did not inhibit	0	inhibits	23 ± 3		
CCCCc1ccc(NC(=O)CSc2nnc(-c3ccccn3)n2CC)cc1 [OLC15]	0	inhibited			0	substantial inhibition	0		15 ± 2	1500 ± 200	2000 ± 300
